54 compounds from patent US7101878B1 (Agouron Pharmaceuticals, Inc., priority 1998, dated 2006) can be followed below.

Like-named read-outs stand apart in the source and are kept apart here.

The assay concerns the target T1, human GnRH receptor (Homo sapiens, UniProt P30968).
T1 construct: expressed in transfected cells; host or cells: HEK 293 (hGnRH-R/293, from Dr. Stuart Sealfon)
T1 sequence (P30968 1-328): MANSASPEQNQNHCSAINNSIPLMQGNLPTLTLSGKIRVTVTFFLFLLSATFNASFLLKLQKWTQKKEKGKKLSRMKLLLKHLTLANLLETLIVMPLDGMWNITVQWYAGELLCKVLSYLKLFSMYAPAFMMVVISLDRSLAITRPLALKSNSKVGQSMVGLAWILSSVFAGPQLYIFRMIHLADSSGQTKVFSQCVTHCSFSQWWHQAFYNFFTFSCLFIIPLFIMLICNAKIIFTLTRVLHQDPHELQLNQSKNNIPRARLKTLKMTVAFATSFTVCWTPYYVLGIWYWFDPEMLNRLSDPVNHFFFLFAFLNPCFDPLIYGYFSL
Briefly: Radioligand binding, 125I-GnRH-A displacement, membranes of HEK 293 cells with human GnRH receptor. As to conditions: for remaining activity at 1 µM: substrate remaining, 1 uM compound, closer to zero = closer to 100% inhibition, read-out: S%R 1 uM hGnRHR. The method in brief:
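Bound tracer was separated by filtration through polyethyleneimine-soaked GF/C filters and counted by liquid scintillation. IC50 from curve fitting; other species were tested under the same conditions.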

Where [1] appears, read: 1 uM, read-out: % Inhib. @ 1 uM hGnRH.
The mark [2] stands for this setting: 1 h, repeat of % Inhib. at 1 uM, read-out: Repeats @ 1 uM hGnRH.

With `Cc1cc2c(cc1Cc1ccc(C(=O)NCc3cccc(Cl)c3)o1)C(C)(C)CCC2(C)C` [Compound 427], the remaining activity at 1 µM (1 h) amounted to 20%.

With `Cc1cc2c(cc1Cc1ccc(C(=O)NC(C)c3ccccc3)o1)C(C)(C)CCC2(C)C` (stereo not shown) [Compound 428], for the setting “1 h”, the remaining activity at 1 µM turned out to be 46%.

For the compound `COc1cccc(CCNC(=O)c2ccc(Cc3cc4c(cc3C)C(C)(C)CCC4(C)C)o2)c1OC` [Compound 429], the remaining activity at 1 µM (1 h) came out at 40%.

Consider `COc1cc(CCNC(=O)c2ccc(Cc3cc4c(cc3C)C(C)(C)CCC4(C)C)o2)cc(OC)c1` [Compound 430], for which the remaining activity at 1 µM (1 h) is 55%.

Take `Cc1cc2c(cc1Cc1ccc(C(=O)NC3CC3)o1)C(C)(C)CCC2(C)C` [Compound 431]: under “1 h”, the remaining activity at 1 µM was 47%.

Consider `COCCNC(=O)c1ccc(Cc2cc3c(cc2C)C(C)(C)CCC3(C)C)o1` [Compound 432], for which the remaining activity at 1 µM (1 h) was 42%.

Take `COc1ccc(CCNC(=O)c2ccc(Cc3cc4c(cc3C)C(C)(C)CCC4(C)C)o2)cc1` [Compound 433]: where the note is “1 h”, the remaining activity at 1 µM worked out at 54%.

`Cc1cccc(CNC(=O)c2ccc(Cc3cc4c(cc3C)C(C)(C)CCC4(C)C)o2)c1` [Compound 434]: where the note is “1 h”, the remaining activity at 1 µM is 6%.

With `Cc1ccc(CNC(=O)c2ccc(Cc3cc4c(cc3C)C(C)(C)CCC4(C)C)o2)cc1` [Compound 435], where the note is “1 h”, the remaining activity at 1 µM was 12%.

As to `Cc1cc2c(cc1Cc1ccc(C(=O)NCCC#N)o1)C(C)(C)CCC2(C)C` [Compound 436], the remaining activity at 1 µM (1 h) was found to be 58%.

Regarding `Cc1cc2c(cc1Cc1ccc(C(=O)NCCc3cccc(F)c3)o1)C(C)(C)CCC2(C)C` [Compound 437], the remaining activity at 1 µM (1 h) amounted to 40%.

Consider `Cc1cc2c(cc1Cc1ccc(C(=O)NCCOc3ccccc3)o1)C(C)(C)CCC2(C)C` [Compound 438], for which the remaining activity at 1 µM (1 h) is 7%.

Regarding `COc1cccc(CNC(=O)c2ccc(Cc3cc4c(cc3C)C(C)(C)CCC4(C)C)o2)c1` [Compound 439], for the setting “1 h”, the remaining activity at 1 µM turned out to be 23%.

On to `Cc1ccc(CNC(=O)c2ccc(Cc3cc4c(cc3C)C(C)(C)CCC4(C)C)o2)cc1C` [Compound 440], for which the remaining activity at 1 µM (1 h) was 22%.

As to `Cc1cc2c(cc1Cc1ccc(C(=O)NCc3cccc(C)c3C)o1)C(C)(C)CCC2(C)C` [Compound 441], where the note is “1 h”, the remaining activity at 1 µM is 17%.

For the compound `Cc1ccc(CCNC(=O)c2ccc(Cc3cc4c(cc3C)C(C)(C)CCC4(C)C)o2)cc1` [Compound 442], under “1 h”, the remaining activity at 1 µM was 50%.

As to `Cc1cc2c(cc1Cc1ccc(C(=O)NCc3cccc(F)c3)o1)C(C)(C)CCC2(C)C` [Compound 443], the remaining activity at 1 µM (1 h) is 19%.

Turning to `Cc1cc2c(cc1Cc1ccc(C(=O)NCC(O)c3ccccc3)o1)C(C)(C)CCC2(C)C` (stereo not shown) [Compound 444], the remaining activity at 1 µM (1 h) was determined as 32%.

`Cc1cc2c(cc1Cc1ccc(C(=O)NCc3ccc(F)cc3F)o1)C(C)(C)CCC2(C)C` [Compound 445]: the remaining activity at 1 µM (1 h) was 22%.

On to `Cc1cc2c(cc1Cc1ccc(C(=O)NCCc3ccc(F)cc3)o1)C(C)(C)CCC2(C)C` [Compound 446], for which the remaining activity at 1 µM (1 h) is 55%.

As for `Cc1cc2c(cc1Cc1ccc(C(=O)NCc3ccc(N(C)C)cc3)o1)C(C)(C)CCC2(C)C` [Compound 447], under “1 h”, the remaining activity at 1 µM amounted to 18%.

Take `COc1cc(CNC(=O)c2ccc(Cc3cc4c(cc3C)C(C)(C)CCC4(C)C)o2)ccc1O` [Compound 448]: the remaining activity at 1 µM (1 h) is 46%.

Take `Cc1cc2c(cc1Cc1ccc(C(=O)NCc3ccccc3Br)o1)C(C)(C)CCC2(C)C` [Compound 449]: the remaining activity at 1 µM (1 h) amounted to 42%.

As to `COc1ccc(CNC(=O)c2ccc(Cc3cc4c(cc3C)C(C)(C)CCC4(C)C)o2)c(OC)c1` [Compound 450], the remaining activity at 1 µM (1 h) was determined as 6%.

For `Cc1cc2c(cc1Cc1ccc(C(=O)NCc3cccc([N+](=O)[O-])c3)o1)C(C)(C)CCC2(C)C` [Compound 451], under “1 h”, the remaining activity at 1 µM worked out at 24%.

As for `Cc1cc2c(cc1Cc1ccc(C(=O)NC(C#N)c3ccccc3)o1)C(C)(C)CCC2(C)C` (stereo not shown) [Compound 452], the remaining activity at 1 µM (1 h) is 55%.

As for `Cc1cc2c(cc1Cc1ccc(C(=O)NCc3ccc(Br)cc3)o1)C(C)(C)CCC2(C)C` [Compound 453], under “1 h”, the remaining activity at 1 µM came out at 50%.

Consider `Cc1cc2c(cc1Cc1ccc(C(=O)NCc3cccc(Br)c3)o1)C(C)(C)CCC2(C)C` [Compound 454], for which the remaining activity at 1 µM (1 h) stood at 36%.

For the compound `Cc1cc2c(cc1Cc1ccc(C(=O)NC(C)c3ccc([N+](=O)[O-])cc3)o1)C(C)(C)CCC2(C)C` (stereo not shown) [Compound 455], the remaining activity at 1 µM (1 h) stood at 58%.

With `Cc1cc2c(cc1Cc1ccc(C(=O)NCCC3CCCN3C)o1)C(C)(C)CCC2(C)C` (stereo not shown) [drawing 977], the inhibition at 1 µM reads like this: under setting [1], 40%; under setting [2], 49%.

Take `Cc1cc2c(cc1Cc1ccc(C(=O)NCCCN3CCOCC3)o1)C(C)(C)CCC2(C)C` [drawing 978]: the inhibition at 1 µM under setting [1] came out at 57% and the inhibition at 1 µM under setting [2] came to 58%.

Take `Cc1cc2c(cc1Cc1ccc(C(=O)NCCCN3CCN(C)CC3)o1)C(C)(C)CCC2(C)C` [drawing 980]: the inhibition at 1 µM under setting [1] is 26% and the inhibition at 1 µM under setting [2] amounted to 26%.

As to `Cc1cc2c(cc1Cc1ccc(C(=O)NCC3CCNCC3)o1)C(C)(C)CCC2(C)C` [drawing 981], the inhibition at 1 µM runs as follows: under setting [1], 20%; under setting [2], 24%.

As for `Cc1cc2c(cc1Cc1ccc(C(=O)NCCN3CCCCC3)o1)C(C)(C)CCC2(C)C` [drawing 982], the inhibition at 1 µM is 15% under setting [1] and 15% under setting [2].

Take `Cc1cc2c(cc1Cc1ccc(C(=O)NCCCN3CCCCC3C)o1)C(C)(C)CCC2(C)C` (stereo not shown) [drawing 983]: the inhibition at 1 µM by setting is: under setting [1], 27%; under setting [2], 31%.

Regarding `Cc1cc2c(cc1Cc1ccc(C(=O)NCc3ccccn3)o1)C(C)(C)CCC2(C)C` [drawing 984], the inhibition at 1 µM under setting [1] is 62% and the inhibition at 1 µM under setting [2] amounted to 67%.

On to `Cc1cc2c(cc1Cc1ccc(C(=O)NCCc3ccccn3)o1)C(C)(C)CCC2(C)C` [drawing 985], for which the inhibition at 1 µM came out at 50% under setting [1] and 62% under setting [2].

For `Cc1cc2c(cc1Cc1ccc(C(=O)NCCN3CCCC3)o1)C(C)(C)CCC2(C)C` [drawing 986], the inhibition at 1 µM reads like this: under setting [1], -7%; under setting [2], 0%.

As for `Cc1cc2c(cc1Cc1ccc(C(=O)NCCN3CCOCC3)o1)C(C)(C)CCC2(C)C` [drawing 987], the inhibition at 1 µM is 63% under setting [1] and 69% under setting [2].

Take `Cc1cc2c(cc1Cc1ccc(C(=O)NCCc3ccc(S(N)(=O)=O)cc3)o1)C(C)(C)CCC2(C)C` [drawing 989]: the inhibition at 1 µM under setting [1] was determined as 38% and the inhibition at 1 µM under setting [2] stood at 41%.

For the compound `Cc1cc2c(cc1Cc1ccc(C(=O)NCCCc3ccccc3)o1)C(C)(C)CCC2(C)C` [drawing 990], the inhibition at 1 µM came to 86% under setting [1] and 90% under setting [2].

`CC(=O)NCCNC(=O)c1ccc(Cc2cc3c(cc2C)C(C)(C)CCC3(C)C)o1` [drawing 991]: the inhibition at 1 µM turned out to be 52% under setting [1] and 54% under setting [2].

Turning to `Cc1cc2c(cc1Cc1ccc(C(=O)NCc3ccc4c(c3)OCO4)o1)C(C)(C)CCC2(C)C` [drawing 992], the inhibition at 1 µM was found to be 75% under setting [1] and 92% under setting [2].

Consider `COc1ccc(CCNC(=O)c2ccc(Cc3cc4c(cc3C)C(C)(C)CCC4(C)C)o2)cc1OC` [drawing 993], for which the inhibition at 1 µM by setting is: under setting [1], 47%; under setting [2], 52%.

In the case of `COc1cccc(CCNC(=O)c2ccc(Cc3cc4c(cc3C)C(C)(C)CCC4(C)C)o2)c1` [drawing 994], the inhibition at 1 µM was 49% under setting [1] and 50% under setting [2].

Consider `COc1cc(CNC(=O)c2ccc(Cc3cc4c(cc3C)C(C)(C)CCC4(C)C)o2)cc(OC)c1OC` [drawing 995], for which the inhibition at 1 µM by setting is: under setting [1], 60%; under setting [2], 62%.

On to `COc1ccc(OC)c(CCNC(=O)c2ccc(Cc3cc4c(cc3C)C(C)(C)CCC4(C)C)o2)c1` [drawing 996], for which the inhibition at 1 µM was 23% under setting [1] and 36% under setting [2].

Turning to `Cc1cc2c(cc1Cc1ccc(C(=O)NCc3ccccc3C(F)(F)F)o1)C(C)(C)CCC2(C)C` [drawing 997], the inhibition at 1 µM under setting [1] came out at 11% and the inhibition at 1 µM under setting [2] stood at 6%.

Consider `Cc1cc2c(cc1Cc1ccc(C(=O)NCCc3ccc(Cl)cc3Cl)o1)C(C)(C)CCC2(C)C` [drawing 998], for which the inhibition at 1 µM came out at 16% under setting [1] and 23% under setting [2].

For `Cc1cc2c(cc1Cc1ccc(C(=O)NCCCN(C)c3ccccc3)o1)C(C)(C)CCC2(C)C` [drawing 1000], the inhibition at 1 µM reads like this: under setting [1], 67%; under setting [2], 70%.

For `Cc1cc2c(cc1Cc1ccc(C(=O)Nc3ccc4[nH]c(-c5ccccn5)nc4c3)o1)C(C)(C)CCC2(C)C` [drawing 1002], the inhibition at 1 µM runs as follows: under setting [1], 13%; under setting [2], 8%.

Take `Cc1cc2c(cc1Cc1ccc(C(=O)NCCCN(C)CCCN)o1)C(C)(C)CCC2(C)C` [drawing 1005]: the inhibition at 1 µM runs as follows: under setting [1], 13%; under setting [2], 33%.

For the compound `Cc1cc2c(cc1Cc1ccc(C(=O)NCCc3c[nH]c4ccc(Cl)cc34)o1)C(C)(C)CCC2(C)C` [drawing 1007], the inhibition at 1 µM amounted to 31% under setting [1] and 45% under setting [2].

Consider `Cc1cc2c(cc1Cc1ccc(C(=O)Nc3nc(N(C)C)nc4nc[nH]c34)o1)C(C)(C)CCC2(C)C` [drawing 1008], for which the inhibition at 1 µM was -13% under setting [1] and -9% under setting [2].
